Like-named read-outs stand apart in the source and are kept apart here.

The target of experiment [1] is T1, 5-HT2A receptor (Rattus norvegicus, UniProt P14842).
T1 construct: Eight strips of tissue (0.5 cm long) were cut. and were mounted in 10 ml organ baths; tissue Charles River Laboratories; host or cells: rat aorta strips, endothelium removed
The experiment can be described thus: cell-based. Particulars: read-out: 5HT2A (pKb) (converted). As for the experimental part: The rat aorta (approximately 7 cm) was isolated and removed from the animal (male Sprague Dawley rat, Charles River Laboratories, Hollister, Calif.). The endothelium was removed mechanically. Eight strips of tissue (0.5 cm long) were cut. and were mounted in 10 ml organ baths kept at 37° C. with Krebs solution (composition in mM: NaCl (118.2), KCl (4.6), CaCl2 (2.5), MgSO4 (1.2), KH2PO4 (1.2), NaHCO3 (24.8) and dextrose (10.0)) that was constantly aerated with carbogen gas (95% O2/5% CO2) to obtain a pH of 7.4. The tissues were subjected to a resting tension of 2 g (3 times, 15 minutes apart, equilibrated in Krebs solution). The tissues were then washed 15 minutes later. Ten minutes later, the tissues were then exposed to 0.1 μM phenylephrine. At the maximal effect, 1 μM acetylcholine was added to confirm the absence of endothelium and then washed twice, 2 minutes apart.
Contractions were recorded as changes in tension from baseline and expressed as a percentage of the maximum response of the agonist (5-HT) concentration-effect curve. Agonist concentration-response curves were fitted using a nonlinear iterative fitting program (GraphPad Prism) using the relationship of Parker and Waud (Parker, R. B. and Waud, D. R. (1971). Pharmacological estimation of drug-receptor dissociation constants. Statistical evaluation. I. Agonists. J. Pharmacol. Exp. Ther., 177, 1-12). Agonist potency was expressed as EC50 (molar concentration of agonist producing 50% of the maximum response). Concentration-ratios (CRs) were determined from EC50 values in the presence and absence of antagonist and antagonist affinity estimates (pKB and pA2 values) were determined. All data are expressed as mean±s.e. mean.

Experiment [2] deals with T2, human D2s dopamine receptors (Homo sapiens, UniProt P14416).
T2 construct: expressed in transfected cells; host or cells: Chinese hamster ovary cells (membranes)
The experiment can be described thus: hD2S receptor radioligand binding ([3H]spiperone). The note with it: pKi reported on a scale of 1 through 5. As for the experimental part: (§1) Consistent with standard competition radioligand binding assays, the methodology was based on displacement of radioligand from tissues (or cell lines) bearing the receptor of interest (Cheng, Y. and Prusoff, W. H. (1973). Biochem. Pharmacol. 22, 3099-3108). The measurements were based on the binding of a single concentration of radiolabeled ligand in the presence of various concentrations of unlabeled ligand.
(§2) Tissues (or cellular plasma membrane fractions) were incubated in the presence of radioligand at equilibrium and in the presence of a range of concentrations of the test compounds (which were non-radiolabeled), and the displaced radioligand was separated from the membranes by filtration. Nonspecific binding was assessed by measuring displacement of the radioligand in the presence of a compound known to block binding of the radioligand to the receptor. Finally, the concentration-response relationship for radioligand displacement (corrected for non-specific binding) was used to assess binding of the test compound to the receptor.

Experiment [3] has as its target T3, human H1 receptors (Homo sapiens, UniProt P35367).
T3 construct: expressed in transfected cells; host or cells: Chinese hamster ovary cells (membranes)
The experiment can be described thus: hH1 receptor radioligand binding ([3H]Pyrilamine). Particulars: pKi reported on a scale of 1 through 5. As for the experimental part:
as §1, §2

Experiment [4] concerns the target T4, human M1 receptors (Homo sapiens, UniProt P11229).
T4 construct: expressed in transfected cells; host or cells: Chinese hamster ovary cells (membranes)
T4 sequence (P11229 1-460): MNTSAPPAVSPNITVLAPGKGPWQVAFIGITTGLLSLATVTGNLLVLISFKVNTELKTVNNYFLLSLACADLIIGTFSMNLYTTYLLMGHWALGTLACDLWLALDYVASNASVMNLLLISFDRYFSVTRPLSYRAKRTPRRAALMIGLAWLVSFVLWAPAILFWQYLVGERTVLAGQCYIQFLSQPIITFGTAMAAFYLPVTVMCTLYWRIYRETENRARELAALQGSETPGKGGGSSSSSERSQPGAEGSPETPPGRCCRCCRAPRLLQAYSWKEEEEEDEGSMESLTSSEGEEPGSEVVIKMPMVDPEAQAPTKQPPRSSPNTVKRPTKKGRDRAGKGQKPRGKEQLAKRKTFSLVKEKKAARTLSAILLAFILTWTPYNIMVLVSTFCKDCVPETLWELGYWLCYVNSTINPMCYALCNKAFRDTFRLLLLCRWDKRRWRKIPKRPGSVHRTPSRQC
The experiment can be described thus: hM1 receptor radioligand binding ([3H]NMS). The note with it: pKi reported on a scale of 1 through 5. As to the method: as §1, §2

Experiment [5] has as its target T5, human 5HT1A receptors (Homo sapiens, UniProt P08908).
T5 construct: expressed in transfected cells; host or cells: Chinese hamster ovary cells (membranes)
T5 sequence (P08908 1-422): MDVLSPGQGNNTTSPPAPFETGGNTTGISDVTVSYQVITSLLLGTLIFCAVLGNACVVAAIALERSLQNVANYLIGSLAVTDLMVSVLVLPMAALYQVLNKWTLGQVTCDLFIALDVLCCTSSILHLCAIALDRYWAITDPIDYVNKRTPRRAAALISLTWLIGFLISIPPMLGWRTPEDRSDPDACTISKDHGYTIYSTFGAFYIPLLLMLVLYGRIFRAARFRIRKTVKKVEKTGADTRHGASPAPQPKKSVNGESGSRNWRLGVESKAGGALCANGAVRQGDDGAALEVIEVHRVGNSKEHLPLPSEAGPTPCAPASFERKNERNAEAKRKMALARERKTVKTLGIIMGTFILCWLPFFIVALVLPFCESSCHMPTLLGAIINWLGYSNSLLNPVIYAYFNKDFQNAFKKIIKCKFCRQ
The experiment can be described thus: h5-HT1A receptor radioligand binding ([3H]8OH-DPAT). Particulars: pKi reported on a scale of 1 through 5. As for the experimental part:
as §1, §2

For experiment [6], the target named is T6, human 5HT2C receptors (Homo sapiens, UniProt P28335).
T6 construct: expressed in transfected cells; host or cells: human embryo kidney cells (membranes)
T6 sequence (P28335 33-458): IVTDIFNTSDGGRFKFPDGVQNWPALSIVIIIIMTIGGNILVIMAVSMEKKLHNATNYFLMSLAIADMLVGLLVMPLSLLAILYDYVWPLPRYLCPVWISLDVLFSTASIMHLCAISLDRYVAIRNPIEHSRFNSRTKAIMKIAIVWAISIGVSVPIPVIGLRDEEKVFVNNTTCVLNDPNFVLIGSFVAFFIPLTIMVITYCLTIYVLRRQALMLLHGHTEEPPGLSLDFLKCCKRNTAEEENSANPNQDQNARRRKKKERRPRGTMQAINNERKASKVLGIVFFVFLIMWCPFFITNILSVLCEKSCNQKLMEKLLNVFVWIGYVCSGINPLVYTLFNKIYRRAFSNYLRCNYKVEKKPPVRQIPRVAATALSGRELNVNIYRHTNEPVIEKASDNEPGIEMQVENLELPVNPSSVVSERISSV
The experiment can be described thus: h5-HT2C receptor radioligand binding ([3H]Mesulergine). Particulars: pKi reported on a scale of 1 through 5. As for the experimental part: The measurements were based on the binding of a single concentration of radiolabeled ligand in the presence of various concentrations of unlabeled ligand.
as §2

Setting [7] is: pKb reported on a scale of 1 through 5.

T3 sequence (P35367 whole entry): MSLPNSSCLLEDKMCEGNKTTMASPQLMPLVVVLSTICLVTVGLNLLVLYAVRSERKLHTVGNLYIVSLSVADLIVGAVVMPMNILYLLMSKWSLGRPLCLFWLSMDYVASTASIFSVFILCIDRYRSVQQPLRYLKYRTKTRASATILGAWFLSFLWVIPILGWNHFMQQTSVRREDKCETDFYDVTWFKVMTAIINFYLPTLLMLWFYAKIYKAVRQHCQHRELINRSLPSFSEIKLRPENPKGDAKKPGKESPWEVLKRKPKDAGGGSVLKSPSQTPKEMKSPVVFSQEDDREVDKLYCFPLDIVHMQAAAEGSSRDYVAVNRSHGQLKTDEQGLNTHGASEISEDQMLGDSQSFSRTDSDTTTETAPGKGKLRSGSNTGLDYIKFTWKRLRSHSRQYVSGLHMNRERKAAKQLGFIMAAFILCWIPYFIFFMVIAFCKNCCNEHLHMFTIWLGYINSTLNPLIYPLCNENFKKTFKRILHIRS
T1 sequence (P14842 whole entry): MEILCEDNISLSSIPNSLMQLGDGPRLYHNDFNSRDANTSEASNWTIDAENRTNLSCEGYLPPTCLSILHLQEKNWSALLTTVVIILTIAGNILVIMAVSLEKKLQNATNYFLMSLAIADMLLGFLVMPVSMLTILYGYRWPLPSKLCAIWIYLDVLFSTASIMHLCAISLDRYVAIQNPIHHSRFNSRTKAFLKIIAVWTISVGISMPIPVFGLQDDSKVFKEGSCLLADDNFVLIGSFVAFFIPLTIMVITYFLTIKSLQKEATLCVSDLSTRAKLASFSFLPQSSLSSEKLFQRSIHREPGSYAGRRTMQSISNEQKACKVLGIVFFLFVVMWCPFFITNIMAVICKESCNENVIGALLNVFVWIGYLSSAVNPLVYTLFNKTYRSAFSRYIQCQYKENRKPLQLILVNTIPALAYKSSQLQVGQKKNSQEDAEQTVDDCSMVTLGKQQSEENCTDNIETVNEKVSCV
T2 sequence (P14416 1-414 isoform P14416-2): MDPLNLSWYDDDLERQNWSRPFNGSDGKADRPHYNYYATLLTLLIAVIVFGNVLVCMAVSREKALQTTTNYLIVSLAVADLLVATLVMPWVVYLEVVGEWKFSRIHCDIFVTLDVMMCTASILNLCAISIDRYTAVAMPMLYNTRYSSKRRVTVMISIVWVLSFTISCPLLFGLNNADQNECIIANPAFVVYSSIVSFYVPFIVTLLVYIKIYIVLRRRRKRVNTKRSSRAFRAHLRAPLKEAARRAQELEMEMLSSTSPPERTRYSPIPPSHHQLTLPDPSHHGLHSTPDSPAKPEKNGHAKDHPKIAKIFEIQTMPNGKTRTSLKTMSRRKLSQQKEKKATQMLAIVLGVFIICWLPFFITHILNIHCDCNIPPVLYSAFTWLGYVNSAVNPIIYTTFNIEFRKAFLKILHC

Take `CCOC(=O)c1ccc(CCC2CN(C3=Nc4cc(Cl)ccc4Oc4ccccc43)CCN2)cc1` (centres unmarked) [Compound F, (E)-ethyl 4-(2-(4-(8-chlorodibenzo[b,f][1,4]oxazepin-11-yl)piperazin-2-yl)ethyl)benzoate]: the Kb in experiment [1] (setting [7]) was > 100 nM. The figures for the Ki in experiment [2], in experiment [3] and in experiment [4] were 631 to 2450 nM, 1000 to 9770 nM and 1260 to 2450 nM, respectively.
For the compound `CCOC(=O)CC1CN(C2=Nc3ccccc3Oc3ccc(Cl)cc32)CCN1` (single isomer, unassigned) [Compound C, (E)-ethyl 2-(4-(2-chlorodibenzo[b,f][1,4]oxazepin-11-yl)piperazin-2-yl)acetate], the Kb in experiment [1] is 31.6 to 97.7 nM. Also, the Ki in experiment [2] is 2510 to 9770 nM; in experiment [4], > 10000 nM.
As for `COCCNC(=O)C[C@H]1CN(C2=Nc3cc(Cl)ccc3Oc3ccccc32)CCN1CCO` [GI, (S,E)-2-(4-(8-chlorodibenzo[b,f][1,4]oxazepin-11-yl)-1-(2-hydroxyethyl)piperazin-2-yl)-N-(2-methoxyethyl)acetamide], the Kb in experiment [1] was 31.6 to 97.7 nM. The Ki in experiment [2] was > 10000 nM; in experiment [5], 1000 to 9770 nM; in experiment [4], > 10000 nM.
Take `CN1CCN(C2=Nc3cc(Cl)ccc3Oc3ccccc32)CC1CC(=O)O` (centres unmarked) [DO, (E)-2-(4-(8-chlorodibenzo[b,f][1,4]oxazepin-11-yl)-1-methylpiperazin-2-yl)acetic acid]: the Ki in experiment [2] is > 10000 nM; in experiment [5], 1000 to 9770 nM; in experiment [6], 100 to 977 nM; in experiment [3], 10 to 97.7 nM.
Regarding `CC[C@H](C)OC(=O)C[C@H]1CN(C2=Nc3cc(Cl)ccc3Oc3ccccc32)CCN1` [EP, sec-butyl 2-((S)-4-((E)-8-chlorodibenzo[b,f][1,4]oxazepin-11-yl)piperazin-2-yl)acetate], the Kb in experiment [1] is 10 to 30.9 nM. Besides, the Ki in experiment [2] is 158 to 617 nM; in experiment [5], 10 to 97.7 nM; in experiment [3], 100 to 977 nM; in experiment [4], 5010 to 9770 nM.
For the compound `O=C(C[C@H]1CN(C2=Nc3cc(Cl)ccc3Oc3ccccc32)CCN1)N1CC[C@@H](O)C1` [GE, 2-((S)-4-((E)-8-chlorodibenzo[b,f][1,4]oxazepin-11-yl)piperazin-2-yl)-1-((R)-3-hydroxypyrrolidin-1-yl)ethanone], the Kb in experiment [1] was 10 to 30.9 nM. Besides, the Ki is 2510 to 9770 nM in experiment [2], 100 to 977 nM in experiment [5] and 2510 to 4900 nM in experiment [4].
For `COC(=O)c1ccc(OC[C@H]2CN(C3=Nc4ccccc4Oc4ccc(Cl)cc43)CCN2)cc1` [D, (R,E)-methyl 4-((4-(2-chlorodibenzo[b,f][1,4]oxazepin-11-yl)piperazin-2-yl)methoxy)benzoate], in experiment [1], the Kb is 31.6 to 97.7 nM. For the same compound, the Ki in experiment [2] was 631 to 2450 nM; in experiment [3] it was 100 to 977 nM; in experiment [4] it was > 10000 nM.
Take `CC(C)CNC(=O)CC1CN(C2=Nc3cc(Cl)ccc3Oc3ccccc32)CCN1` (centres unmarked) [B, (E)-2-(4-(8-chlorodibenzo[b,f][1,4]oxazepin-11-yl)piperazin-2-yl)-N-isobutylacetamide]: the Kb in experiment [1] is 31.6 to 97.7 nM. The Ki is 158 to 617 nM in experiment [2] and > 10000 nM in experiment [4].
Consider `CN1CC[C@@H](OC(=O)C[C@H]2CN(C3=Nc4cc(Cl)ccc4Oc4ccccc43)CCN2C)C1` [ES, (R)-1-methylpyrrolidin-3-yl 2-((S)-4-((E)-8-chlorodibenzo[b,f][1,4]oxazepin-11-yl)-1-methylpiperazin-2-yl)acetate], for which the Ki in experiment [2] is > 10000 nM; in experiment [5], 1000 to 9770 nM; in experiment [3], 10 to 97.7 nM; in experiment [4], > 10000 nM.
As for `COC(=O)COCC1CN(C2=Nc3ccccc3Oc3ccc(Cl)cc32)CCN1C` (centres unmarked) [DM, (E)-methyl 2-((4-(2-chlorodibenzo[b,f][1,4]oxazepin-11-yl)-1-methylpiperazin-2-yl)methoxy)acetate], the Kb in experiment [1] is 10 to 30.9 nM. For the same compound, the Ki in experiment [2] was > 10000 nM.
As to `COC(=O)c1ccc(OCC2CN(C3=Nc4cc(Cl)ccc4Oc4ccccc43)CCN2)cc1` (centres unmarked) [G, (E)-methyl 4-((4-(8-chlorodibenzo[b,f][1,4]oxazepin-11-yl)piperazin-2-yl)methoxy)benzoate], the Kb in experiment [1] was 10 to 30.9 nM. For the same compound, the Ki in experiment [2] is 2510 to 9770 nM; in experiment [3], 1000 to 9770 nM; in experiment [4], 5010 to 9770 nM.
With `CN1CCN(C2=Nc3cc(Cl)ccc3Oc3ccccc32)C[C@@H]1CC(=O)OCCCF` [EX, (S,E)-3-fluoropropyl 2-(4-(8-chlorodibenzo[b,f][1,4]oxazepin-11-yl)-1-methylpiperazin-2-yl)acetate], the Ki in experiment [2] is 2510 to 9770 nM; in experiment [5], 1000 to 9770 nM; in experiment [6] it was 100 to 977 nM; in experiment [3] it was 10 to 97.7 nM; in experiment [4] it was 5010 to 9770 nM.
As for `CN1CCN(C2=Nc3cc(Cl)ccc3Oc3ccccc32)C[C@@H]1CC(=O)NC(CF)CF` [EV, (S,E)-2-(4-(8-chlorodibenzo[b,f][1,4]oxazepin-11-yl)-1-methylpiperazin-2-yl)-N-(1,3-difluoropropan-2-yl)acetamide], the Kb in experiment [1] is 31.6 to 97.7 nM. The Ki in experiment [2] was 2510 to 9770 nM; in experiment [5] it was 1000 to 9770 nM; in experiment [3], 10 to 97.7 nM; in experiment [4], 5010 to 9770 nM.
Turning to `COC(=O)C[C@H]1CN(C2=Nc3cc(Cl)ccc3Oc3ccccc32)CCN1CC1CC1` [ET, (S,E)-methyl 2-(4-(8-chlorodibenzo[b,f][1,4]oxazepin-11-yl)-1-(cyclopropylmethyl)piperazin-2-yl)acetate], the Kb in experiment [1] (setting [7]) is > 100 nM. Further, the Ki in experiment [2] was 631 to 2450 nM; in experiment [5], 1000 to 9770 nM; in experiment [3], 100 to 977 nM; in experiment [4], 2510 to 4900 nM.

The term Ki denotes a measure of affinity in units of concentration, obtained from inhibition or displacement.

The record behind these values is patent US20120178738A1, “DIBENZO [B,F] [1,4]OXAZAPINE COMPOUNDS” (ARYX THERAPEUTICS, INC., priority 2007, published 2012).
